From patent publication US5053070A, “Pyrimidine derivatives, preparation processes thereof, herbicide containing the same, and herbicidal compositions containing the same along with other active ingredient” (Mitsui Toatsu Chemicals, Incorporated, priority 1988, dated 1991)

Columns and labels:
[1] = tested on: ALS (acetolactate syntase); test: ALS enzyme assay (Test 1); format: biochemical, barnyardgrass; conditions: 1,000 ppm (0.5 mg/0.5 ml)
Experimental: To determine the selectivity in enzyme level between crops and weeds, and ALS enzyme assay was conducted using pea as a representative of broadleaf crops and barnyardgrass as a representative of narrowleaf weeds.
After seeds of pea and barnyardgrass were allowed to germinate at 25° C. for 8-14 days in a dark place, partially-purified suspensions (Suspensions A) of acetolactate syntase were separately obtained from seedlings in accordance with the method described in the literature, Plant Physiology, 75, 827-831.
In a test tube, 0.5 mg of one of test compounds was weighed, followed by the addition of 0.15 ml of a 20 mM K2 HPO4 solution and 0.25 ml of a reaction substrate medium which consisted of 40 mM of K2 HPO4, 40 mM of sodium pyruvate, 1 mM of TPP, 1 mM of MgCl2 and 20 μM of FAD so that 0.4 ml of a reaction solution (Solution B) was prepared. Added to 0.4 ml of Solution B was 0.1 ml of suspension A. After the resultant mixture was shaken for 1 hour in a thermostat water bath controlled at 30° C., 50 μl of 6N sulfuric acid were added to terminate the reaction.
Next, the reaction-terminated liquid mixture was transferred into a thermostat water bath controlled at 60° C. and was heated for 15 minutes. Thereafter, 0.5 ml of a 0.5% creatine solution and 0.5 ml of a 5% alkaline α-naphthol solution were added, and the resultant mixture was maintained at 60° C. for 15 minutes. As a result, the test solution developed a pink-red color. After the above operation, the absorbance of the test solution at 525 nm was measured by a spectrophotometer (Absorbance 1 of Test Compound).
On the other hand, the absorbance (Absorbance 2 of Blank) of a solution obtained by subjecting a portion of Solution B, said portion being free of the test compound, to the above operation and the absorbance (Absorbance 3 of sulfuric acid terminated) of another solution obtained by subjecting another portion of Solution B, said portion containing 50 μl of 6N sulfuric acid as a test compound, were measured at the same time. Based on the values of the respective measurements, the enzyme assay at 1,000 ppm (0.5 mg/0.5 ml) of each compound was determined. [formula]

[2] = tested on: foxtail meadow; test: Upland soil application test (Test 2); format: in vivo; conditions: 30 g ai/a, soil spray before emergence, 30 days later
Summary of the method: (§1)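 Steps: fill pots with fertilized upland field soil containing uniformly mixed weed seed; sow crops and cover with 2-3 cm soil; after one day, spray the diluted wettable powder evenly over the soil at 10 l per are; assess at 30 days against untreated controls by dry weight.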

[3] = tested on: green foxtail; test: Upland soil application test (Test 2); format: in vivo; conditions: 30 g ai/a, soil spray before emergence, 30 days later
Summary of the method: as §1

[4] = tested on: johnsongrass; test: Upland soil application test (Test 2); format: in vivo; conditions: 30 g ai/a, soil spray before emergence, 30 days later
Summary of the method: as §1

[5] = tested on: barnyardgrass; test: Upland foliar application test (Test 3); format: in vivo; conditions: 30 g ai/a, foliar spray at 2-3 leaves, 30th day
Experimental: (§2) Resin-made 1/10000-are pots were filled with the soil of an upland field. Redroot pigweed, common lambsquarters, foxtail meadow, johnsongrass, barnyardgrass, green foxtail, large crabgrass, soybean, peanut and cotton were separately seeded and were allowed to germinate in a green house. When each plant grew to the stage of 2-3 leaves, an emulsion formulated from a predetermined amount of each test compound in a similar manner to the method described in Formulation Example 11 was diluted with water to a predetermined dilution rate and then sprayed at an application rate equal to 5 l per are onto the foliage of each plant by means of a pressure-operated ULV (ultra low volume) sprayer. Influence to the crops and weeds were observed on the 30th day after the spray of the herbicides. The results are shown in Table 4 in which the degree of damages of each test plant and the degree of injury to each crop are shown in a similar manner to Test 2.

[6] = tested on: common lambsquarters; test: Upland foliar application test (Test 3); format: in vivo; conditions: 30 g ai/a, foliar spray at 2-3 leaves, 30th day
Experimental: as §2

[7] = tested on: foxtail meadow; test: Upland foliar application test (Test 3); format: in vivo; conditions: 30 g ai/a, foliar spray at 2-3 leaves, 30th day
Experimental: as §2

[8] = tested on: green foxtail; test: Upland foliar application test (Test 3); format: in vivo; conditions: 30 g ai/a, foliar spray at 2-3 leaves, 30th day
Experimental: as §2

[9] = tested on: johnsongrass; test: Upland foliar application test (Test 3); format: in vivo; conditions: 30 g ai/a, foliar spray at 2-3 leaves, 30th day
Experimental: as §2

[10] = tested on: large crabgrass; test: Upland foliar application test (Test 3); format: in vivo; conditions: 30 g ai/a, foliar spray at 2-3 leaves, 30th day
Experimental: as §2

[11] = tested on: redroot pigweed; test: Upland foliar application test (Test 3); format: in vivo; conditions: 30 g ai/a, foliar spray at 2-3 leaves, 30th day
Experimental: as §2

[12] = tested on: Sagittaria pygmaea; test: Treatment of soil under submerged condition, pre-emergence (Test 4); format: in vivo; conditions: 30 g ai/a granule, 30 days later
Experimental: (§3) 1/5000-are Wagner pots were filled with soil. Seeds or tubers of barnyardgrass, Monochoria vaginalis, bulrush, Sagittaria pygmaea, Cyperus seroylnus and Eleocharis kuroguwai were seeded or planted under submerged condition. Two pairs of rice seedlings (2-3 leaf stage), which had been reared in advance, were transplanted to each pot and were allowed to germinate in a green house. Each pair consisted of two rice seedlings. One day later (before emergence of weeds), each pot was treated with a granule which had been prepared by processing a predetermined amount of the test composition in accordance with a similar method to the method described in Formulation Example 9. The state of emergence of weeds and the state of injury of rice were observed 30 days later.
(§4) In the table, the degrees of damages of the test plants and the degrees of injury of rice are shown in a similar manner to Example 2.

[13] = tested on: barnyardgrass; test: as above; format: in vivo; conditions: 30 g ai/a granule, 30 days later
Experimental: as §3, §4

[14] = tested on: bulrush; test: as above; format: in vivo; conditions: 30 g ai/a granule, 30 days later
Experimental: as §3, §4

[15] = tested on: rice; test: Treatment of soil under submerged condition, pre-emergence (Test 4), injury; format: in vivo; conditions: 30 g ai/a granule, 30 days later
Experimental: as §3, §4

Compound | Inhibitory activity (%) Barnyardgrass [1] [%] | Herbicidal effects Foxtail meadow [2] | Herbicidal effects Green foxtail [3] | Herbicidal effects Johnsongrass [4] | Herbicidal effects Barnyardgrass [5] | Herbicidal effects Common lambsquarters [6] | Herbicidal effects Foxtail meadow [7] | Herbicidal effects Green foxtail [8] | Herbicidal effects Johnsongrass [9] | Herbicidal effects Large crabgrass [10] | Herbicidal effects Redroot pigweed [11] | Herbicidal effects Sagittaria Pygmaea [12] | Herbicidal effects Barnyardgrass [13] | Herbicidal effects Bulrush [14] | Injury Rice [15]
COc1cc(OC)nc(Oc2ccccc2C=NOCC=Cc2ccccc2)n1 [Compound No. 9] | 95 | 5 (0-5 (Death)) | 5 (0-5 (Death)) | 5 (0-5 (Death)) | 5 (0-5 (Death)) | 4 (6-10 (Severe damages)) | 5 (0-5 (Death)) | 5 (0-5 (Death)) | 5 (0-5 (Death)) | 5 (0-5 (Death)) | 5 (0-5 (Death)) | 5 (0-5 (Death)) | 5 (0-5 (Death)) | 4 (6-10 (Severe damages)) | 1 (71-90 (Slight damages))
C#CCON=Cc1ccccc1Oc1nc(OC)cc(OC)n1 [Compound No. 13, 0-(2-propynyl)-2-(4,6-dimethoxy-2-pyrimidinyloxy)benzaldoxime] | 85 | 5 (0-5 (Death)) | 5 (0-5 (Death)) | 5 (0-5 (Death)) | 5 (0-5 (Death)) | 4 (6-10 (Severe damages)) | 5 (0-5 (Death)) | 5 (0-5 (Death)) | 5 (0-5 (Death)) | 5 (0-5 (Death)) | 5 (0-5 (Death)) | 4 (6-10 (Severe damages)) | 4 (6-10 (Severe damages)) | 5 (0-5 (Death)) | 1 (71-90 (Slight damages))
C=C(Cl)CON=Cc1ccccc1Oc1nc(OC)cc(OC)n1 [Compound No. 14] | 56 | 5 (0-5 (Death)) | 5 (0-5 (Death)) | 5 (0-5 (Death)) | 5 (0-5 (Death)) | 4 (6-10 (Severe damages)) | 5 (0-5 (Death)) | 5 (0-5 (Death)) | 5 (0-5 (Death)) | 5 (0-5 (Death)) | 4 (6-10 (Severe damages)) | 5 (0-5 (Death)) | 5 (0-5 (Death)) | 3 (11-40 (Medium damages)) | 0 (91-100 (No damages))
COc1cc(OC)nc(Oc2ccccc2C=NOCc2ccccc2)n1 [Compound No. 15] | 23 | 5 (0-5 (Death)) | 5 (0-5 (Death)) | 5 (0-5 (Death)) | 5 (0-5 (Death)) | 5 (0-5 (Death)) | 4 (6-10 (Severe damages)) | 5 (0-5 (Death)) | 5 (0-5 (Death)) | 4 (6-10 (Severe damages)) | 5 (0-5 (Death)) | 3 (11-40 (Medium damages)) | 4 (6-10 (Severe damages)) | 1 (71-90 (Slight damages)) | 1 (71-90 (Slight damages))
COc1cc(OC)nc(Oc2ccccc2C=NOCc2ccc(Cl)cc2Cl)n1 [Compound No. 17] | 15 | 3 (11-40 (Medium damages)) | 3 (11-40 (Medium damages)) | 3 (11-40 (Medium damages)) | 3 (11-40 (Medium damages)) | 4 (6-10 (Severe damages)) | 3 (11-40 (Medium damages)) | 5 (0-5 (Death)) | 5 (0-5 (Death)) | 3 (11-40 (Medium damages)) | 4 (6-10 (Severe damages)) | 3 (11-40 (Medium damages)) | 4 (6-10 (Severe damages)) | 4 (6-10 (Severe damages)) | 0 (91-100 (No damages))
COc1cc(OC)nc(Oc2ccccc2C=NO)n1 [Compound No. 24, 2-(4,6-dimethoxy-2-pyrimidinyloxy)-benzaloxime] | 36 | 5 (0-5 (Death)) | 5 (0-5 (Death)) | 5 (0-5 (Death)) | 4 (6-10 (Severe damages)) | 3 (11-40 (Medium damages)) | 4 (6-10 (Severe damages)) | 4 (6-10 (Severe damages)) | 5 (0-5 (Death)) | 4 (6-10 (Severe damages)) | 3 (11-40 (Medium damages)) | 4 (6-10 (Severe damages)) | 3 (11-40 (Medium damages)) | 2 (41-70 (Small damages)) | 1 (71-90 (Slight damages))
COc1cc(OC)nc(Oc2ccccc2C=NOCC=Cc2cccc(Cl)c2)n1 [Compound No. 26, 0-(3-chlorocinnamyl)-2-(4,6-dimethoxy-2-pyrimidinyloxy)benzaldxime] | 89 | 4 (6-10 (Severe damages)) | 5 (0-5 (Death)) | 5 (0-5 (Death)) | 5 (0-5 (Death)) | 4 (6-10 (Severe damages)) | 4 (6-10 (Severe damages)) | 5 (0-5 (Death)) | 5 (0-5 (Death)) | 5 (0-5 (Death)) | 4 (6-10 (Severe damages)) | 5 (0-5 (Death)) | 4 (6-10 (Severe damages)) | 4 (6-10 (Severe damages)) | 0 (91-100 (No damages))
